“And” between values parts separate entries of the source, which are not always exact repeats. Identical values can stand only once.
Key:
PKL [1] = molecular target: T1, PKL (Homo sapiens, UniProt P30613); test: Surface plasmon resonance, PKL
Protocol: The surface was washed with 10 mM NaOH, 1M NaCl followed by immobilization of protein before subsequent deactivation by 1 M ethanolamine. Immobilization levels were typically 12000-16000 RU. The reference spot was treated as described, omitting the injection of PKL. Compound concentration series was injected over the immobilized protein in increasing concentrations using multi cycle (MCK) or single cycle kinetics (SCK) in running buffer (10 mM HEPES, 150 mM NaCl, 0.05% Tween20, 0.3% DMSO, pH 7.4). A 1:1 Langmuir interaction model is fitted to the experimental traces, enabling determination of kon, koff and Kd.

HEK293 cells = test: Live-cell uptake by confocal microscopy; assay type: cell-based; conditions: live HEK293, 1 µM
Protocol: To investigate the cellular permeability of IV, we employed confocal microscopy to monitor the uptake of the tracer in live HEK293 cells over time. The tracer was added to live cells at a final concentration of 1 µM, and real‐time fluorescence intensity was recorded immediately after addition. A rapid increase in fluorescence was observed, reaching a stable plateau approximately 4 min after addition, indicating fast cellular uptake and […] (Figure 3a and Video S1).
Fluorescence intensity was then continuously monitored for 60 min. To assess potential fluorophore degradation, corrected total cell fluorescence (CTCF) was calculated at each time point (Figure S6). Fluorescence values from regions of interest (ROIs) were integrated and normalized cell area and background signals in the absence of tracer.
To attach HEK293 cells to the bottom of 24-well imaging plates (Ibidi 82427), a Cell-Tak adhesive mixture (Corning, 354240) was used. It was prepared with a mixture of sodium bicarbonate (75 g/L), sodium hydroxide (40 g/L) and Cell-Tak (2.03 g/L) at a volume ratio of 291:5:4. For each well, 500 μL of Cell-Tak mix was added and incubated at room temperature for 30 min. […] For analysing intracellular fluorescence and distribution of IV within HEK293 cells, Z-stack images (22 images) were acquired after 5, 15, 30 and 60 min of incubation across a physical depth of ~22 μm. […]

PKL [2] = molecular target: T1, PKL; test: HepG2 PKM2 KO cell lysate PKL activity assay; conditions: HepG2 PKM2 KO cells, 48 h, mean ± SE n=3
Protocol: These predominantly express PKL.
HepG2 PKM2 KO cells (Synthego) were plated in 6 well plates at cell densities of 2 x 10^5 cells/well and incubated for 24 h at 37 °C and 5% CO2. Compounds were added to the cells in different concentrations (0.1, 1, 10 µM) and the cells were further incubated for 48 h. The control cells received DMSO as vehicle.
Cells were washed with PBS, lysed on ice with 200 µL/well PK assay buffer. […] Pyruvate kinase (PK) activity of the cell lysates (10 µg total protein) was analyzed by using the PK assay kit from abcam (ab83432) according to manufacturer´s instructions. The PKL activity in the cell lysates treated with the compounds was expressed as a percentage of the PK activity in the vehicle.

PKM2 = PKM2 (Homo sapiens, UniProt P14618); test: Surface plasmon resonance, PKM2
PKL [3] = molecular target: T1, PKL; test: Fluorescence indication titration of tracer IV; assay type: binding; design: co-crystallisation of full-length PKL (including the B-domain); 8xHis (TEV-cleavable) (N, cleaved yes); made in house; host or cells: E. coli T7 Express (NEB), pExp-NHis plasmid
Protocol: The binding kinetics of IV were further validated with fluorescence titration experiments conducted with recombinant PKL. As previously reported, SBD‐tagged PKL ligands fluorescence upon binding to the allosteric pocket,^[ [43] ^] enabling K D determination by saturation binding. […] Association kinetics were then measured by adding tracer IV to PKL and monitoring fluorescence over time. Data were fit using an exponential association model (Equation S2),^[ [49] ^] and k on was derived from the reciprocal analysis of recorded k obs values. The k off was subsequently calculated (Equation S3).^[ [49] ^] The fluorescent binding experiments were consistent with SPR results, confirming a mid‐nanomolar K D of IV.
Titrations of tracer IV were performed in the presence and absence of 10 µM FBP. […] PKL was prepared as a 2x working solution at a constant concentration used throughout the titration. Equal volumes (10 µL) of 2x tracer and 2x PKL solutions were mixed (1:1) in 384-well microplates (Corning Black PS, 3820). For each experiment, three 12-point triplicate series were prepared containing either: (1) tracer IV and buffer (no PKL), (2) tracer IV and PKL (0.1 µM), (3) tracer IV and PKL (0.1 µM) and mitapivat (10 µM, competitor control). […] Titration data were analyzed in Origin(Pro) 2023^[8] and fitted to the Hill equation to determine EC₅₀ values.

Sequence of PKM2 (P14618 whole entry): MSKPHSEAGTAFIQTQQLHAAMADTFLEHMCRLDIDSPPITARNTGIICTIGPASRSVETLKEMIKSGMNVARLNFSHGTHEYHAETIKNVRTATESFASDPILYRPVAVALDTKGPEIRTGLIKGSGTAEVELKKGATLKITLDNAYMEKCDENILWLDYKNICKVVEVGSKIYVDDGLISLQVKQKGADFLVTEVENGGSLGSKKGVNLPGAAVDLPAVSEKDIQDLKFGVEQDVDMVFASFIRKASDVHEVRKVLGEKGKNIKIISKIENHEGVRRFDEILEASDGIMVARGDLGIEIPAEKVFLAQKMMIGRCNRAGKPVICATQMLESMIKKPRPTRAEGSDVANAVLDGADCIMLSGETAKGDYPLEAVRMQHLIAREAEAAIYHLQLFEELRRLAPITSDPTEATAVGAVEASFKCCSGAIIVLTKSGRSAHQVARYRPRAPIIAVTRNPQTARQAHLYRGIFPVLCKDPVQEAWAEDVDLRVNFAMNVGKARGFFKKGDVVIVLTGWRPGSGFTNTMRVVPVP
T1 sequence (P30613 1-543 isoform P30613-2): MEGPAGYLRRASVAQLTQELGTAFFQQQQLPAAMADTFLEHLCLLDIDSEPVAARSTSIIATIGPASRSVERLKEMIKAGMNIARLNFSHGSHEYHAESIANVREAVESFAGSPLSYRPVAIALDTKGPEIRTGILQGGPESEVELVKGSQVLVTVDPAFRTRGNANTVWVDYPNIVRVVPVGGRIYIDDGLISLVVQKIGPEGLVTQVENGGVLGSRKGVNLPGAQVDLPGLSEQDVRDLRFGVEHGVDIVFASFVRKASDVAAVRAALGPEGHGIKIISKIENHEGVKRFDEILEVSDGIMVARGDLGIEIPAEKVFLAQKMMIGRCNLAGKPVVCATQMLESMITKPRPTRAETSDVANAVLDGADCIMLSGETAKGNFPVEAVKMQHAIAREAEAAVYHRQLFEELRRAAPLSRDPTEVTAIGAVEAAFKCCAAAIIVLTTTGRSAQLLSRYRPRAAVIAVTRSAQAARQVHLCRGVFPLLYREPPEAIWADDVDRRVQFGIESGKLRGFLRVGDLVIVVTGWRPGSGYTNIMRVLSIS

Kd (PKL [1]; K D SPR (PKL), 20 °C, mean ± SE n=3): 0.037 ± 0.001 µM | Kd (PKL [1]; KD, independent replicates, single cycle kinetics, 1:1 Langmuir fit, Figure S14): 0.0388 µM and 0.0369 µM | PKL selectivity over PKM2 (PKL [1]; SPR K D PKM2 vs PKL): 37 fold | koff (PKL [1]; read-out: k off SPR (PKL)): 0.00617 s⁻¹ | kon (PKL [1]; read-out: k on SPR (PKL)): 168000 M⁻¹ s⁻¹ | time to stable fluorescence plateau after addition (HEK293 cells): approximately 4 min | PKL activities (% of vehicle) 0.1 µM (PKL [2]; 0.1 µM): 108 ± 3 % of vehicle | PKL activities (% of vehicle) 1 µM (PKL [2]; 1 µM): 146 ± 4 % of vehicle | PKL activities (% of vehicle) 10 µM (PKL [2]; 10 µM): 242 ± 7 % of vehicle | Kd (PKM2): 1.37 ± 0.218 µM | koff (PKM2; read-out: k off SPR (PKM2)): 0.0133 s⁻¹ | kon (PKM2; read-out: k on SPR (PKM2)): 9830 M⁻¹ s⁻¹ | koff (PKL [3]; calculated from K D and k on (Equation S3), read-out: k off fluorescence titration (PKL) (converted)): 0.00865 s⁻¹ | kon (PKL [3]; from k obs values): 206000 M⁻¹ s⁻¹ | Kd (PKL [3]; recombinant PKL, Hill fit, read-out: K D fluorescence titration (PKL)): 0.042 ± 0.007 µM
SMILES: CN(C)c1ccc(S(=O)(=O)c2ccc3c(=O)n(Cc4cc[nH]n4)ncc3c2)c2nonc12 [Compound IV, 2-((1H-Pyrazol-3-yl)methyl)-6-((7-(dimethylamino)benzo[c][1,2,5]oxadiazol-4-yl)sulfonyl)phthalazin-1(2H)-one]
effect of FBP on binding affinity (PKL [3]; PKLwt, with and without 10 µM FBP): no significant change in binding affinity

— article PMC12518693, “Potent Fluorescent Probe for Target‐Engagement Studies of Allosteric Pyruvate Kinase Modulators” (Angewandte Chemie (International Ed. in English), 2025)
